Source: US20230391727A1, “ANALOGUES OF PENTAMIDINE AND METHODS FOR TREATING INFECTIONS” (Auransa Inc., priority 2020, published 2023)
In brackets after ≈: the same amount, converted by molar mass. Read-outs that look alike come from different tables or passages of the source.

Columns and labels:
Type in all cases: cell-based
[1] = system: S. aureus ATCC 43300; test: MIC assay against gram positive S. aureus; conditions: Staphylococcus aureus, ATCC43300
Procedure: (§1) Then the compound stocks were serially 2-fold diluted in a v-bottom 96-well plate to make 100-fold working solutions. One day before the test, −80° C. glycerol stock of S. aureus strains were streaked on cation-adjusted Mueller-Hinton agar (CAMHA) plates. On the day of test, fresh bacterial colonies were suspended into sterile saline to an OD600 nm of ˜0.1 (equivalent to 0.5 McFarland). The bacterial suspension was firstly 20-fold followed by 50-fold diluted in cation-adjusted Mueller-Hinton broth (CAMHB) plates to 1×10^6 CFU/PO. 198 ul of the inoculum was added into the round-bottom 96-well plates prefilled with 2 ul of 100-fold compound working solutions. After incubating at 35 +/−2° C. in ambient atmosphere for 18-24 h, MIC was recorded as the lowest concentration under which no visible bacterial growth was observed.

[2] = system: S. aureus ATCC 27660; test: MIC assay against gram positive S. aureus; conditions: Staphylococcus aureus, ATCC27660
Procedure: as §1

[3] = Anti-fungal MIC assay, summary of second round; conditions: read-out: Isolate MIC (100%); range over isolates of the second round of testing
Procedure: The first round of testing included Candida parapsilosis, Candida krusei, Paecilomyces variotii, Candida albicans, Aspergillus fumigatus, and Blastomyces dermatitidis. […] The second round of testing included Candida parapsilosis, Candida krusei, Candida albicans, Candida auris, Candida glabrata, Candida guilliermondii, and Cryptococcus neoformans.
Stock solutions of the investigational agent were prepared at concentrations 100-times the highest concentration to be tested (6400 μg/ml) using dimethyl sulfoxide. Aliquots of the stock solutions were dispensed into polystyrene vials and stored at −20° C.
The synthetic medium RPMI-1640 (with glutamine, without bicarbonate, and with phenol red) was used. The RPMI was buffered to a pH of 7.0+0.1 at 25° C. with 0.165M MOPS (3-[N-morpholino] propanesulfonic acid). Sterile U-shaped 96-well cell culture plates were used to perform the MIC assays. […]
Fungal isolates were grown on Sabouraud dextrose agar (yeasts) or potato flake agar (filamentous fungi) and cells were collected after an appropriate period of growth for each species being evaluated (e.g., 48-72 hours for yeasts and 7 days for filamentous fungi). The fungi were suspended in sterile distilled water, and the densities of the fungal suspension were read using a spectrophotometer and adjusted to an appropriate optical density specific for each fungal species. […]

[4] = system: Cryptococcus neoformans CN3; test: Anti-fungal MIC assay
Procedure, shortened: (§2)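 First, DMSO stocks (6400 μg/ml, 100× highest test level) were diluted to 2× in RPMI-1640 with MOPS at pH 7.0. Trays were then held at 35° C without agitation.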

[5] = system: Candida parapsilosis CP3; test: Anti-fungal MIC assay; conditions: Lodderomyces parapsilosis
Procedure, shortened: as §2

[6] = system: Candida auris DI17-47; test: Anti-fungal MIC assay; conditions: Candidozyma auris
Procedure, shortened: as §2

[7] = system: Aspergillus fumigatus AF293; test: Anti-fungal MIC assay
Procedure, shortened: as §2

[8] = system: Aspergillus fumigatus AF2; test: Anti-fungal MIC assay
Procedure, shortened: as §2

[9] = system: Candida albicans CA6; test: Anti-fungal MIC assay
Procedure, shortened: as §2

[10] = system: Candida albicans 43001; test: Anti-fungal MIC assay
Procedure, shortened: as §2

[11] = system: Candida albicans CA5; test: Anti-fungal MIC assay
Procedure, shortened: as §2

[12] = system: Staphylococcus aureus BAA-1556 (MRSA); test: MIC assay against gram positive and antibiotic-resistant S. aureus; conditions: Staphylococcus aureus BAA-1556, MRSA; read-out: MIC
Procedure: (§3) The MICs of vancomycin and linezolid were determined as quality controls and the MIC values of each strain met the acceptance criteria based on PDS historical reference data.
(§4) The direct colony suspension method was used to prepare inoculated broth. Isolated colonies were taken from an 18-24 h culture plate. Optical density measurements (OD620 nm) were used to estimate the bacterial density. The test article, compound 3, and reference control stock solutions were prepared in 100% DMSO as 50× stock solutions. The 50× stock solutions were diluted by 2-fold serial titrations with 100% DMSO for a total of 11 concentrations. A 4 μL aliquot of each dilution was added to 196 μL of cation-adjusted Mueller Hinton Broth II medium seeded with the organism in wells of a 96 well plate. The final vehicle concentration was two percent (2%) in all assay wells. The final bacterial count was 2 to 8×10^5 CFU/mL. The final compound 3 concentration range was 16 to 0.016 μg/mL. Each test substance dilution was evaluated in duplicate on one test occasion. Vehicle-control and reference controls were used as blank and positive controls, respectively. Plates were incubated at 35-37° C. for 18 h. The test plates were visually examined and each well was visually scored for growth or complete inhibition of growth. The MIC value was recorded.

[13] = system: Staphylococcus aureus ATCC 33591 (MRSA); test: as above; conditions: Staphylococcus aureus ATCC 33591, MRSA; read-out: MIC
Procedure: as §3, §4

[14] = system: Staphylococcus aureus ATCC 19636; test: as above; conditions: ATCC19636; Staphylococcus aureus ATCC 19636; read-out: MIC
Procedure: as §3, §4

[15] = system: Staphylococcus aureus VRS-2 (VRSA); test: as above; conditions: Staphylococcus aureus VRS-2, VRSA; read-out: MIC
Procedure: as §3, §4

[16] = read-out: MIC, 50% growth inhibition
[17] = read-out: MIC, 100% growth inhibition

Molecule `N=C(N)c1ccc(CC[C@H]2CCC[C@@H](CCc3ccc(C(=N)N)cc3)C2)cc1` [Compound 3, 4,4′-(2,2′-((1R,3S)-cyclohexane-1,3-diyl)bis(ethane-2,1-diyl))dibenzimidamide] has an MIC [1] of 0.5 µg/mL (≈ 1.33 µM), an MIC [2] of 0.5 µg/mL (≈ 1.33 µM) and an MIC [3] of 0.5 to 8 µg/mL (≈ 1.33 to 21.2 µM). It also gave an MIC [4, 16] of 0.5 µg/mL (≈ 1.33 µM), an MIC [4, 17] of 0.5 µg/mL (≈ 1.33 µM) and an MIC [5, 16] of 2 µg/mL (≈ 5.31 µM). For the same molecule, the MIC [5, 17] was 8 µg/mL (≈ 21.2 µM), the MIC ([6]; DI1747, read-out: MIC, 50% growth inhibition) was 1 µg/mL (≈ 2.66 µM) and the MIC ([6]; DI1747, read-out: MIC, 100% growth inhibition) was 4 µg/mL (≈ 10.6 µM). The MIC [7, 16] was 16 µg/mL (≈ 42.5 µM), the MIC [7, 17] was 16 µg/mL (≈ 42.5 µM) and the MIC [8, 16] was 32 µg/mL (≈ 85 µM). It also gave an MIC [8, 17] of 32 µg/mL (≈ 85 µM), an MIC [9, 16] of 0.5 µg/mL (≈ 1.33 µM) and an MIC [9, 17] of 0.5 µg/mL (≈ 1.33 µM). The MIC [10, 16] was 0.25 µg/mL (≈ 0.664 µM), the MIC [10, 17] was 0.5 µg/mL (≈ 1.33 µM) and the MIC [11, 16] was 0.25 µg/mL (≈ 0.664 µM). It also gave an MIC [11, 17] of 0.5 µg/mL (≈ 1.33 µM), an MIC [12] of 0.25 µg/mL (≈ 0.664 µM) and an MIC [13] of 0.125 µg/mL (≈ 0.332 µM). For the same molecule, the MIC [14] was 0.125 µg/mL (≈ 0.332 µM) and the MIC [15] was 0.25 µg/mL (≈ 0.664 µM).
